Reference: patent US6492174B1, “Methods of initiating embryogenic cultures in plants” (Institute of Paper Science & Technology, priority 2000, dated 2002)

Tests used:
[1] = system: rice (Oryza sativa) cultivar Taipei 309 dehulled seeds; test: Rice embryogenic callus diameter on MS media with 2.0 mg/l 2,4-D, two weeks; type: cell-based; conditions: for Callus Diameter (mm) + (std. error): two weeks
Excerpt: In this experiment, brassinolide and elevated atmospheric pressure improved the initiation of embryogenic cultures in rice (Oryza sativa). Rice, an annual angiosperm, is quite taxonomically distant from the conifers used in previous examples. However, as this example makes clear, brassinosteroids and elevated atmospheric pressure effectively increase embryogenic culture initiation of in a wide variety of species.
In this experiment, four initiation treatments were studied, using explants from mature Japaonica rice seeds (cultivar Taipei 309). The explants were dehulled sterilized seeds. About 400 mature seeds were dehulled and surface sterilized in a 5.25% bleach solution for 25 minutes and then rinsed three times with sterile deionized water. About 70 explants were placed into each of four treatment petri dishes containing solid media. The explants were placed with the embryo side up. The basal media was a Murashige and Skoog (MS) media containing 2.0 mg/l 2,4-D. Plates were wrapped in PARAFILM and cultured in the dark at 27° for two weeks.
Treatment 1, the control treatment, consisted of the above-described basal media, contained no brassinolide, and was cultured at atmospheric pressure. Treatment 2 contained the basal media and was cultured at 1.5 atm of pressure. Treatment 3 contained basal to which 0.1 μM brassinolide was added and was cultured at normal atmospheric pressure. Treatment 4 contained basal media to which 1 μM brassinolide was added and was cultured at atmospheric pressure.
After two weeks, embryogenic callus had developed on most of the explants. The embryogenic callus formed in spherical formations around the embryo. During culture, the scutellum elongated and the embryogenic calli formed masses around the base of the scutellum, covering and obscuring the rest of the embryo. Initiation was scored by measuring the diameter of the embrygenic callus on each explant. A larger callus contains more somatic embryos and thus has a greater potential to supply viable embryos for subsequent regeneration of whole plants. Callus size was measured by observing callus under a dissecting scope fitted with an ocular measurement device allowing accurate measurements to 0.1 mm.

[2] = system: Loblolly pine megagametophytes; test: Vacuum infiltration of abscisic acid solutions (liquid media #1036) before culture on solid media #1042, eight weeks; type: cell-based
Excerpt: In this experiment the effects of megagametophyte pre-treatment by vacuum infiltration with abscisic acid solutions of varying concentration was investigated. The explants were megagametophytes from summer cones of four open pollinated individual trees, representing multiplicity of genotypes. The seeds contained Stage 2-4 zygotic embryos. Megagametophytes were excised from sterilized seeds, as described in Example 4.
Prior to culturing, the megagametophytes were vacuum infiltrated with liquid growth media #1036 (see Table 47) containing 0, 1, 5, or 25 ppm abscisic acid (See Table 19 for treatment media compositions). After vacuum infiltration, each megagametophyte was placed on 2 ml solid culture media #1042 (see Table 47 for composition) in a single well on a culture well plate.
One possible explanation for the results is that vacuum treatment may damage the megagametophytes.

[3] = genotype 5-1207, treatment 2, 1 ppm abscisic acid
[4] = genotype 5-1207, treatment 3, 5 ppm abscisic acid
[5] = genotype 5-1207, treatment 4, 25 ppm abscisic acid
[6] = genotype 7-1051, treatment 2, 1 ppm abscisic acid
[7] = genotype 7-1051, treatment 3, 5 ppm abscisic acid
[8] = genotype 7-1051, treatment 4, 25 ppm abscisic acid
[9] = genotype 11-1055, treatment 2, 1 ppm abscisic acid
[10] = genotype 11-1055, treatment 3, 5 ppm abscisic acid
[11] = genotype 11-1055, treatment 4, 25 ppm abscisic acid
[12] = genotype 11-1507, treatment 2, 1 ppm abscisic acid
[13] = genotype 11-1507, treatment 3, 5 ppm abscisic acid
[14] = genotype 11-1507, treatment 4, 25 ppm abscisic acid
[15] = total, treatment 2, 1 ppm abscisic acid
[16] = total, treatment 3, 5 ppm abscisic acid
[17] = total, treatment 4, 25 ppm abscisic acid

Compound: CC(C)[C@H](C)[C@@H](O)[C@H](O)[C@@H](C)[C@H]1CC[C@H]2[C@@H]3COC(=O)[C@H]4C[C@H](O)[C@H](O)C[C@]4(C)[C@H]3CC[C@]12C [brassinolide]
- average callus size vs control ([1]; 0.1 μM brassinolide): significantly increased
- average callus size vs control ([1]; 1.0 μM brassinolide): did not increase callus size
- Callus Diameter (mm) + (std. error) ([1]; +0.1 μM Brassinolide): 4.70 (0.13) mm
- Callus Diameter (mm) + (std. error) ([1]; +1.0 μM Brassinolide): 4.19 (0.12) mm

Compound: CC1=CC(=O)CC(C)(C)C1(O)/C=C/C(C)=C\C(=O)O (centres unmarked) [ABA, 5-(1-hydroxy-2,6,6,-trimethyl-4-oxo-2-cyclohexen-1-yl)-3-methyl-2,4-penta dienoic acid]
- % of Megagametophytes Extruding [2, 3]: 23.3 (14.5) %
- % of Megagametophytes Initiating [2, 3]: 20 (11.5) %
- % of Megagametophytes Extruding [2, 4]: 10.0 (5.8) %
- % of Megagametophytes Initiating [2, 4]: 10 (5.8) %
- % of Megagametophytes Extruding [2, 5]: 13.3 (13.3) %
- % of Megagametophytes Initiating [2, 5]: 10 (10.0) %
- % of Megagametophytes Extruding [2, 6]: 33.3 (8.8) %
- % of Megagametophytes Initiating [2, 6]: 6.7 (3.3) %
- % of Megagametophytes Extruding [2, 7]: 30.0 (11.5) %
- % of Megagametophytes Initiating [2, 7]: 10 (5.8) %
- % of Megagametophytes Extruding [2, 8]: 56.7 (12.0) %
- % of Megagametophytes Initiating [2, 8]: 13.3 (8.8) %
- % of Megagametophytes Extruding [2, 9]: 53.3 (3.3) %
- % of Megagametophytes Initiating [2, 9]: 16.7 (3.3) %
- % of Megagametophytes Extruding [2, 10]: 66.7 (12.0) %
- % of Megagametophytes Initiating [2, 10]: 30 (11.5) %
- % of Megagametophytes Extruding [2, 11]: 36.7 (3.3) %
- % of Megagametophytes Initiating [2, 11]: 13.3 (3.3) %
- % of Megagametophytes Extruding [2, 12]: 16.7 (6.7) %
- % of Megagametophytes Initiating [2, 12]: 6.7 (6.7) %
- % of Megagametophytes Extruding [2, 13]: 6.7 (3.3) %
- % of Megagametophytes Initiating [2, 13]: 6.7 (3.3) %
- % of Megagametophytes Extruding [2, 14]: 6.7 (3.3) %
- % of Megagametophytes Initiating [2, 14]: 0 (0.0) %
- % of Megagametophytes Extruding [2, 15]: 31.7%
- % of Megagametophytes Initiating [2, 15]: 12.5%
- % of Megagametophytes Extruding [2, 16]: 28.4%
- % of Megagametophytes Initiating [2, 16]: 14.2%
- % of Megagametophytes Extruding [2, 17]: 28.4%
- % of Megagametophytes Initiating [2, 17]: 9.2%
- promotion of extrusion or initiation ([2]; vacuum infiltration, 1, 5 or 25 ppm): did not promote extrusion or initiation
